Measured values reported in PubChem BioAssay (NCI).
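Cells were grown in 96-well plates and exposed to each compound for 48 hours at five concentrations; endpoints were interpolated linearly between bracketing concentrations, or set to the highest concentration if not reached. GI50 marks 50% less growth. TGI: total growth inhibition.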

Experiments:
Test in all cases: DTP human tumour cell line panel, 48 h
786-0 renal = system: 786-0 renal
A498 renal = system: A498 renal
A549 NSCLC = system: A549 NSCLC
ACHN renal = system: ACHN renal
BT-549 breast = system: BT-549 breast
CAKI-1 renal = system: CAKI-1 renal
CCRF-CEM leukemia = system: CCRF-CEM leukemia
COLO 205 colon = system: COLO 205 colon
DU-145 prostate = system: DU-145 prostate
EKVX NSCLC = system: EKVX NSCLC
HCC-2998 colon = system: HCC-2998 colon
HCT-116 colon = system: HCT-116 colon
HCT-15 colon = system: HCT-15 colon
HL-60(TB) leukemia = system: HL-60(TB) leukemia
HOP-62 NSCLC = system: HOP-62 NSCLC
HOP-92 NSCLC = system: HOP-92 NSCLC
HS 578T breast = system: HS 578T breast
HT29 colon = system: HT29 colon
IGROV1 ovarian = system: IGROV1 ovarian
K-562 leukemia = system: K-562 leukemia
KM12 colon = system: KM12 colon
LOX IMVI melanoma = system: LOX IMVI melanoma
M14 melanoma = system: M14 melanoma
MALME-3M melanoma = system: MALME-3M melanoma
MCF7 breast = system: MCF7 breast
MDA-MB-231 breast = system: MDA-MB-231 breast
MDA-MB-435 = system: MDA-MB-435
MOLT-4 leukemia = system: MOLT-4 leukemia
NCI-H226 lung = system: NCI-H226 lung
NCI-H23 lung = system: NCI-H23 lung
NCI-H460 lung = system: NCI-H460 lung
NCI-H522 lung = system: NCI-H522 lung
NCI/ADR-RES ovarian = system: NCI/ADR-RES ovarian
OVCAR-3 ovarian = system: OVCAR-3 ovarian
OVCAR-4 ovarian = system: OVCAR-4 ovarian
OVCAR-5 ovarian = system: OVCAR-5 ovarian
OVCAR-8 ovarian = system: OVCAR-8 ovarian
PC-3 prostate = system: PC-3 prostate
RPMI-8226 leukemia = system: RPMI-8226 leukemia
RXF 393 renal = system: RXF 393 renal
SF-268 CNS = system: SF-268 CNS
SF-295 CNS = system: SF-295 CNS
SF-539 CNS = system: SF-539 CNS
SK-MEL-2 melanoma = system: SK-MEL-2 melanoma
SK-MEL-28 melanoma = system: SK-MEL-28 melanoma
SK-MEL-5 melanoma = system: SK-MEL-5 melanoma
SK-OV-3 ovarian = system: SK-OV-3 ovarian
SN12C renal = system: SN12C renal
SNB-19 CNS = system: SNB-19 CNS
SNB-75 CNS = system: SNB-75 CNS
SR leukemia = system: SR leukemia
SW-620 colon = system: SW-620 colon
T-47D breast = system: T-47D breast
TK-10 renal = system: TK-10 renal
U251 CNS = system: U251 CNS
UACC-257 melanoma = system: UACC-257 melanoma
UACC-62 melanoma = system: UACC-62 melanoma
UO-31 renal = system: UO-31 renal

## CN(C)CCNC(=O)Nc1ccc(N(C)c2ccnc(Nc3ccc(CS(C)(=O)=O)cc3)n2)cc1
786-0 renal
  GI50: > 25 µM
  TGI: > 25 µM
A498 renal
  GI50: > 25 µM
  TGI: > 25 µM
A549 NSCLC
  GI50: > 25 µM
  TGI: > 25 µM
ACHN renal
  GI50: > 25 µM
  TGI: > 25 µM
BT-549 breast
  GI50: > 25 µM
  TGI: > 25 µM
CAKI-1 renal
  GI50: > 25 µM
  TGI: > 25 µM
CCRF-CEM leukemia
  GI50: 16.5 µM
  TGI: > 25 µM
COLO 205 colon
  GI50: > 25 µM
  TGI: > 25 µM
DU-145 prostate
  GI50: > 25 µM
  TGI: > 25 µM
EKVX NSCLC
  GI50: > 25 µM
  TGI: > 25 µM
HCC-2998 colon
  GI50: > 25 µM
  TGI: > 25 µM
HCT-116 colon
  GI50: > 25 µM
  TGI: > 25 µM
HCT-15 colon
  GI50: > 25 µM
  TGI: > 25 µM
HL-60(TB) leukemia
  GI50: > 25 µM
  TGI: > 25 µM
HOP-62 NSCLC
  GI50: > 25 µM
  TGI: > 25 µM
HOP-92 NSCLC
  GI50: 6.99 µM
  TGI: > 25 µM
HS 578T breast
  GI50: > 19.8 µM
  TGI: > 25 µM
HT29 colon
  GI50: > 25 µM
  TGI: > 25 µM
IGROV1 ovarian
  GI50: > 25 µM
  TGI: > 25 µM
K-562 leukemia
  GI50: > 25 µM
  TGI: > 25 µM
KM12 colon
  GI50: 9.88 µM
  TGI: > 25 µM
LOX IMVI melanoma
  GI50: > 25 µM
  TGI: > 25 µM
M14 melanoma
  GI50: > 25 µM
  TGI: > 25 µM
MALME-3M melanoma
  GI50: > 25 µM
  TGI: > 25 µM
MCF7 breast
  GI50: > 25 µM
  TGI: > 25 µM
MDA-MB-231 breast
  GI50: > 25 µM
  TGI: > 25 µM
MDA-MB-435
  GI50: > 25 µM
  TGI: > 25 µM
MOLT-4 leukemia
  GI50: > 25 µM
  TGI: > 25 µM
NCI-H226 lung
  GI50: > 23.7 µM
  TGI: > 25 µM
NCI-H23 lung
  GI50: > 25 µM
  TGI: > 25 µM
NCI-H460 lung
  GI50: > 25 µM
  TGI: > 25 µM
NCI-H522 lung
  GI50: > 16.9 µM
  TGI: > 25 µM
NCI/ADR-RES ovarian
  GI50: > 25 µM
  TGI: > 25 µM
OVCAR-3 ovarian
  GI50: > 25 µM
  TGI: > 25 µM
OVCAR-4 ovarian
  GI50: > 25 µM
  TGI: > 25 µM
OVCAR-5 ovarian
  GI50: > 25 µM
  TGI: > 25 µM
OVCAR-8 ovarian
  GI50: > 25 µM
  TGI: > 25 µM
PC-3 prostate
  GI50: > 25 µM
  TGI: > 25 µM
RPMI-8226 leukemia
  GI50: > 25 µM
  TGI: > 25 µM
RXF 393 renal
  GI50: > 25 µM
  TGI: > 25 µM
SF-268 CNS
  GI50: > 25 µM
  TGI: > 25 µM
SF-295 CNS
  GI50: > 25 µM
  TGI: > 25 µM
SF-539 CNS
  GI50: > 20.9 µM
  TGI: > 25 µM
SK-MEL-2 melanoma
  GI50: > 25 µM
  TGI: > 25 µM
SK-MEL-28 melanoma
  GI50: > 25 µM
  TGI: > 25 µM
SK-MEL-5 melanoma
  GI50: > 25 µM
  TGI: > 25 µM
SK-OV-3 ovarian
  GI50: > 25 µM
  TGI: > 25 µM
SN12C renal
  GI50: > 25 µM
  TGI: > 25 µM
SNB-19 CNS
  GI50: > 25 µM
  TGI: > 25 µM
SNB-75 CNS
  GI50: > 12.7 µM
  TGI: > 25 µM
SR leukemia
  GI50: 14.8 µM
  TGI: > 25 µM
SW-620 colon
  GI50: > 25 µM
  TGI: > 25 µM
T-47D breast
  GI50: > 25 µM
  TGI: > 25 µM
TK-10 renal
  GI50: > 25 µM
  TGI: > 25 µM
U251 CNS
  GI50: > 25 µM
  TGI: > 25 µM
UACC-257 melanoma
  GI50: > 25 µM
  TGI: > 25 µM
UACC-62 melanoma
  GI50: > 25 µM
  TGI: > 25 µM
UO-31 renal
  GI50: > 25 µM
  TGI: > 25 µM

## CCc1ccc(Oc2c(-c3ccc(OCc4ccc(Cl)cc4)cc3O)nn(C)c2C(F)(F)F)cc1
786-0 renal
  GI50: 1.22 µM
  TGI: 2.87 µM
A498 renal
  GI50: 1.28 µM
  TGI: 2.93 µM
A549 NSCLC
  GI50: 0.514 µM
  TGI: 1.95 µM
ACHN renal
  GI50: 0.385 µM
  TGI: 1.7 µM
BT-549 breast
  GI50: 1.56 µM
  TGI: 3.34 µM
CAKI-1 renal
  GI50: 2.09 µM
  TGI: 7.25 µM
CCRF-CEM leukemia
  GI50: 0.454 µM
  TGI: 4.82 µM
COLO 205 colon
  GI50: 0.457 µM
  TGI: 1.73 µM
DU-145 prostate
  GI50: 0.545 µM
  TGI: 2.27 µM
EKVX NSCLC
  GI50: 1.03 µM
  TGI: 2.98 µM
HCC-2998 colon
  GI50: 2.44 µM
  TGI: 9.62 µM
HCT-116 colon
  GI50: 0.259 µM
  TGI: 1.1 µM
HCT-15 colon
  GI50: 0.365 µM
  TGI: 1.45 µM
HL-60(TB) leukemia
  GI50: 1.42 µM
  TGI: 3.62 µM
HOP-62 NSCLC
  GI50: 1.34 µM
  TGI: 2.83 µM
HOP-92 NSCLC
  GI50: 0.324 µM
  TGI: 1.77 µM
HS 578T breast
  GI50: 1.5 µM
  TGI: 4.92 µM
HT29 colon
  GI50: 0.58 µM
  TGI: 2.11 µM
IGROV1 ovarian
  GI50: 0.654 µM
  TGI: 2.7 µM
K-562 leukemia
  GI50: 0.39 µM
  TGI: 1.58 µM
KM12 colon
  GI50: 0.389 µM
  TGI: 1.61 µM
LOX IMVI melanoma
  GI50: 0.416 µM
  TGI: 1.51 µM
M14 melanoma
  GI50: 1.17 µM
  TGI: 2.68 µM
MALME-3M melanoma
  GI50: 1.14 µM
  TGI: 2.6 µM
MCF7 breast
  GI50: 0.339 µM
  TGI: 1.9 µM
MDA-MB-231 breast
  GI50: 1.19 µM
  TGI: 2.85 µM
MDA-MB-435
  GI50: 1.06 µM
  TGI: 2.25 µM
MOLT-4 leukemia
  GI50: 0.565 µM
  TGI: 2.93 µM
NCI-H226 lung
  GI50: 1.18 µM
  TGI: 3.6 µM
NCI-H23 lung
  GI50: 0.376 µM
  TGI: 1.74 µM
NCI-H460 lung
  GI50: 0.356 µM
  TGI: 1.31 µM
NCI-H522 lung
  GI50: 0.303 µM
  TGI: 1.94 µM
NCI/ADR-RES ovarian
  GI50: 0.905 µM
  TGI: 4.47 µM
OVCAR-3 ovarian
  GI50: 0.334 µM
  TGI: 1.13 µM
OVCAR-4 ovarian
  GI50: 0.547 µM
  TGI: 2.33 µM
OVCAR-5 ovarian
  GI50: 1.75 µM
  TGI: 3.85 µM
OVCAR-8 ovarian
  GI50: 1.35 µM
  TGI: 3.79 µM
PC-3 prostate
  GI50: 0.358 µM
  TGI: 1.68 µM
RPMI-8226 leukemia
  GI50: 0.505 µM
  TGI: 3.6 µM
RXF 393 renal
  GI50: 1.14 µM
  TGI: 2.59 µM
SF-268 CNS
  GI50: 1.25 µM
  TGI: 2.9 µM
SF-295 CNS
  GI50: 0.947 µM
  TGI: 2.51 µM
SF-539 CNS
  GI50: 1.77 µM
  TGI: 3.75 µM
SK-MEL-2 melanoma
  GI50: 1.02 µM
  TGI: 2.63 µM
SK-MEL-28 melanoma
  GI50: 1.26 µM
  TGI: 2.91 µM
SK-MEL-5 melanoma
  GI50: 1.22 µM
  TGI: 2.47 µM
SK-OV-3 ovarian
  GI50: 1.63 µM
  TGI: 4.98 µM
SN12C renal
  GI50: 1.04 µM
  TGI: 2.48 µM
SNB-19 CNS
  GI50: 0.591 µM
  TGI: 2.14 µM
SNB-75 CNS
  GI50: 1.34 µM
  TGI: 4.49 µM
SR leukemia
  GI50: 0.502 µM
  TGI: 3.76 µM
SW-620 colon
  GI50: 0.382 µM
  TGI: 1.76 µM
T-47D breast
  GI50: 0.248 µM
  TGI: 0.936 µM
TK-10 renal
  GI50: 1.23 µM
  TGI: 3.18 µM
U251 CNS
  GI50: 0.357 µM
  TGI: 1.36 µM
UACC-257 melanoma
  GI50: 1.18 µM
  TGI: 3.53 µM
UACC-62 melanoma
  GI50: 0.516 µM
  TGI: 2.25 µM
UO-31 renal
  GI50: 0.432 µM
  TGI: 1.63 µM
